Where “and” joins values, the source holds several entries; their conditions need not be identical. Equal entries are not always repeated.
Key:
[1] = tested on: posterior intervertebral disc (lumbar intervertebral joints); assay: Indentation stress relaxation of posterior annulus before and after compression/flexion fatigue cycling; parameters: species or system calf; conditions: for change in relaxation due to 6000 fatigue cycles versus controls (fatigue resistance): 72 hours soaking (G1 0.033%, G2 0.33% Genipin in PBS), 6000 cycles at 200 N, 0.25 Hz; for initial pre-fatigue relaxation less than the pre-fatigue relaxation of the controls: 72 hours soaking in PBS with Genipin (G1 0.033%, G2 0.33%), before fatigue cycling
Description: (§1) Thirty-three lumbar intervertebral joints were obtained from ten four-month-old calf spines. The intervertebral joints were arbitrarily divided into 3 groups: untreated controls-12 specimens, Genipin treatment 1 (G1)-6 specimens, and Genipin treatment 2 (G2)-13 specimens. The G1 treatment involved 72 hours of soaking the whole specimen in PBS with a 0.033% concentration of Genipin. Similarly the G2 treatment involved 72 hours of soaking whole specimens in PBS with 0.33% concentration of Genipin. 0.33% Genipin in PBS is produced by dilution of 50 ml of 10 times. PBS (Phosphate Buffered Saline) with distilled water by a factor of 10 to give 500 ml (500 gm) of PBS and mixing in 1.65 grams of genipin to produce the 0.33% (wt %, gm/gm) solution. […] Some controls were not subjected to soaking prior to fatigue testing. Others were soaked in a saline solution for 72 hours. Water mass loss experiments were conducted to establish the equivalency of outer annulus hydration between the genipin soaked and 0.9% saline soaked controls. The selection of treatments was randomized by spine and level. The vertebral ends of the specimens were then potted in polyurethane to facilitate mechanical testing. At the prescribed points in the loading regimen, indentation testing was used to find viscoelastic properties as follows. Stress relaxation data was gathered by ramp loading the 3 mm diameter hemi-spherical indenter to 10 N and subsequently holding that displacement for 60 s, while recording the resulting decrease in stress, referred to as the stress relaxation. Indentation testing was also utilized to determine elastic-plastic properties by calculating a hardness index (resistance to indentation) from ramp loading data. Prior to recording hardness measurements, the tissue is repeatedly indented 10 times (60 s/cycle, to the displacement at an initial 10 N load). This test protocol is based on two principles. First, viscoelastic effects asymptotically decrease with repeated loading. Secondly, hardness measurements are sensitive to the loading history of the tissue. However this effect becomes negligible following 10 loading cycles. In order to minimize these effects, viscoelastic data (stress relaxation) was collected from tissue that had not previously been indented. Alternately, elastic-plastic data (hardness) was collected from tissue that had been repeatedly loaded (preconditioned). In this case, repetitive indentation was intended to reduce the undesired effects of the changing viscoelastic properties, namely lack of repeatability, on hardness measurements. These testing procedures were derived from several preliminary experiments on the repeatability of the measurements with variations of loading history and location. Following initial indentation testing, the specimen was loaded repetitively in flexion-compression at 200 N for 3000 cycles at a rate of 0.25 Hz. The load was applied perpendicularly to the transverse plane, 40 mm anterior to the mid-point of the specimen in the transverse plane. A second set of indentation testing data is then collected following fatigue cycling. This procedure was followed for two fatigue loading cycles. During all testing, the specimens were wrapped in saline wetted gauze to maintain their moisture content. […] Several statistical measures were calculated to evaluate the significance of the results. […]

[2] = tested on: posterior intervertebral disc (lumbar intervertebral joints); assay: Indentation hardness of posterior annulus before and after compression/flexion fatigue cycling; parameters: species or system calf; conditions: for persistence of hardness improvement under fatigue cycling: 0.33% Genipin soak, up to 3000 fatigue cycles
Description: as §1, with “measurements.” for “measurements. These testing procedures were derived from several preliminary experiments on the repeatability of the measurements with variations of loading history and location. Following initial indentation testing, the specimen was loaded repetitively in flexion-compression at 200 N for 3000 cycles at a rate of 0.25 Hz. The load was applied perpendicularly to the transverse plane, 40 mm anterior to the mid-point of the specimen in the transverse plane. A second set of indentation testing data is then collected following fatigue cycling. This procedure was followed for two fatigue loading cycles. During all testing, the specimens were wrapped in saline wetted gauze to maintain their moisture content.”

[3] = tested on: calf spine segments (intervertebral disc annular tissue); assay: Four-point lateral bending test of spine segments after unilateral injection of crosslinking reagent; conditions: for Change in Stiffness: Compression side / Change in Stiffness: Tensionon side: neutral zone bending stiffness versus pre-treatment control; for Change in Stiffness: Compression side: treated side in compression; for Change in Stiffness: Tensionon side / Loss of Hysteresis: treated side in tension; for Loss of Hysteresis: versus pre-treatment control of same specimen
Text: Experiments utilized 5 calf spine segments, each segment comprised of 3 lumbar intervertebral joints (motion segments), four vertebrae and the intervening 3 discs. The pedicles were cut and the posterior processes removed. The segments were randomly divided into a 0.33% by weight genipin crosslinked group, a 0.5% genipin group, a 0.66% genipin group, and a 0.66% genipin plus 0.1% proanthocyanidin group. Each group consisted of one 3 motion segment specimen. Each pre-treated spine served as its own control. Repeated testing was performed on some untreated and treated specimens to determine repeatability of the measurements. Additional appropriate concentrations and combinations of known minimally cytotoxic crosslinking reagents will be chosen based on the documented cytotoxicity of a particular tissue. […] Similar testing will be conducted on fresh-non-frozen animal tissue with appropriate sterilization procedures and antibiotics to prevent tissue degradation. Sugar solutions will be injected unilaterally into fresh intervertebral discs to induce non-enzymatic glycation crosslinks over a period of sterile incubation.
Four-point lateral bending tests were conducted using an MTS 858 materials testing system with custom fixtures while load and displacement were recorded digitally. First the specimens were cleaned of muscle and other non-load supporting tissues, and then the terminal vertebrae were potted in polyurethane to half their height in square molds. The potted spine segments are then placed on the bottom 2 rollers such that the lateral sides of the spines were positioned in a vertical plane. The bending load was actuated by 2 upper rollers in contact with the central two vertebrae of the segment. Care was taken to ensure that the pre- and post-treatment positioning of the specimens on the rollers was similar. As an attribute of 4-point bending, the central region of the test specimen, including the central disc between the 2 upper rollers, has an […] bending moment. A ramp load to 100 N (0.5 mm/s) was applied in right and left lateral bending to each spine both prior to treatment and after crosslinking treatment.
The crosslinking reagents were delivered to each of the discs in each spine specimen by 2 to 3 injections into one lateral side of the spine. Each injection was comprised of 1 cc of reagent. A 26 gauge hypodermic needle was used. The treated segments were allowed to sit in a closed container wrapped in moist paper towels for 36 hours prior to final testing. After testing, the discs were cut transversely to visually document the region of the tissue contacted by the reagents.
Resistance to lateral bending and lateral bending stability were assessed by two measures, one elastic-plastic, the other viscoelastic. The first was the neutral zone (low-load) bending stiffness evidenced by the amount of deformation from 0.1 to 100 N of deforming force. The second was the hysteresis or bending energy lost or not stored by the tissues. Less hysteresis, or a lower percentage of hysteresis compared to strain energy or the amount of bending energy stored and returned, corresponds to greater capacity to bounce back from a bend rather than remain in the deformed position. It also reflects a more elastic, spring-like response as compared to a more viscous response.

[4] = tested on: annulus fibrosus specimens from lumbar intervertebral discs; assay: Radial tear resistance test of annulus fibrosus specimens; parameters: species or system bovine; conditions: soaked two days in 0.15M PBS plus 0.33% genipin
Text: Ten annulus fibrosus circumferentially aligned specimens from bovine lumbar (T12-L5) intervertebral discs were divided into two groups and either soaked two days in a 0.15M PBS or a 0.15M PBS plus 0.33% genipin solution. A custom loading fixture attached to a uniaxial materials testing system was designed to hold an annulus specimen perpendicular to the travel of a metal cylinder placed in a pre-existing radial cut. The cylinder was then pulled radially (perpendicular to lamellae) towards the external layer. Time dependent force and displacement data was acquired simultaneously. Tearing resistance was quantified in two ways: peak force normalized by specimen thickness and tearing energy per area of tear. Differences between groups were analyzed using the Mann-Whitney non-parametric test.

[5] = tested on: intervertebral discs (nucleus pulposus, inner and outer annulus fibrosus); assay: Hydration change / fluid flux of disc regions after soaking, creep loading and resoaking; parameters: species or system calf (4 month old bovine); conditions: for Water content, Gr C2: 0.33% Genipin 2 days, then 750N creep loading 1 hour; for % increase by Genipin (flux versus control) / Genipin Flux / % increase by Genipin (fluid flow into and out of the nucleus versus control): 0.33% genipin; for Water content, Gr B2: 1 day PBS then 2 days 0.33% genipin solution; for Water content, Gr D2: 0.33% genipin 2 days, 750N creep 1 hour, PBS another day
Text: By measuring the change in hydration of different regions of the intervertebral disc (nucleus pulposus, inner annulus, and outer annulus fibrosus) prior to and after periods of soaking, sustained compressive loading, and resoaking, the fluid flux to and from different regions can be determined. By comparing these measurements between control discs and discs treated with crosslinking reagents known to have minimal cytotoxicity, we see the effect of crosslinking treatment on fluid flux and permeability. A total of 24 calf (4 month old bovine) intervertebral discs were used for this study. Water content of three different areas of the […] tissue were tested-the nucleus pulposus, inner annulus fibrosus and outer annulus fibrosus. Hydration change was determined by weighing the specimen using a micro-balance (sensitivity: 0.1 mg). Water content (M) was calculated as: M=(Wet Weight-Dry Weight)/Wet Weight=g H2O/g Wet Weight The drying procedure consisted of putting the specimens in the oven with a controlled temperature of 90 degree C. for 24 hours. The specimens were separated into four tests: 1. Group A: Three specimens were in this group. It served as a control group. The specimens were soaked in PBS (phosphate buffered saline) for 1 day and then the hydration analysis was performed. 2. Group B1: Four specimens were in this group. In addition to the one day PBS soaking, the specimens soaked in PBS for 2 more days as a control and then the hydration analysis was performed. Group B2: Five specimens were in this group. In addition to the one day PBS soaking, the specimens were soaked in 0.33% genipin solution for 2 days and then the hydration analysis was performed. 3. In group C, a small daytime amount of constant compressive loading (creep) was simulated. C1: Three specimens were in this group. The specimens were soaked in PBS for 3 days and then […] of compression was applied by a materials testing machine for 1 hour. The disc was compressed in a 5 degree of flexion posture produced by two rollers attached to the loading ram of the materials testing machine. The hydration analysis was performed immediately after the creep loading. C2: Three specimens were in this group. The specimens were soaked in 0.33% Genipin solution for 2 days after 1 day of PBS soaking and performed identical creep loading with […] compressive load. The hydration analysis was performed immediately after the creep loading. 4. In group D, the imbibition of water following a period of compressive loading that typically occurs in the night time as a person is in a recumbent posture was simulated. D1: The specimens were soaked in PBS solution for 3 days and then 1 hour of creep loading at 750 N was applied. After the creep loading, the specimens were placed in a container in 1 PBS for one more day followed by the hydration analysis. D2: Three specimens were included and were soaked in 0.33% genipin solution for 2 days after one day of PBS soaking. A creep load of […] for one hour was then applied. The specimens were put in PBS for another day followed by the hydration analysis.

[6] = tested on: collagenous, load-supporting tissues; conditions: compared with other crosslinking reagents (Sung 1999b); cited from earlier work
[7] = compared to other more commonly used crosslinking agents; cited from earlier work

For COC(=O)C1=CO[C@@H](O)[C@@H]2C(CO)=CC[C@H]12 [G2, Genipin], the “change in relaxation due to 6000 fatigue cycles versus controls (fatigue resistance)” value [1] was “less than a third of the change in the controls”, the “initial pre-fatigue relaxation less than the pre-fatigue relaxation of the controls” value [1] was 19% and the “persistence of hardness improvement under fatigue cycling” value [2] was “appears to have eroded prior to 3000 fatigue cycles”. The “change in hardness between 3000 and 6000 cycles” value ([2]; G2: 0.33% Genipin, Brinnell's hardness index) was −0.94 and the “initial pre-fatigue hardness greater than that of the control group” value ([2]; G2: 72 hours soaking in PBS with 0.33% Genipin, before fatigue cycling) was 17%.

In the case of COC(=O)C1=CO[C@@H](O)[C@@H]2C(CO)=CC[C@H]12 [G1, Genipin], the “change in relaxation due to 6000 fatigue cycles versus controls (fatigue resistance)” value [1] is reported as “did not bring about the same improvement in fatigue resistance” and the “initial pre-fatigue relaxation less than the pre-fatigue relaxation of the controls” value [1] is reported as 26%.

For COC(=O)C1=CO[C@@H](O)[C@@H]2C(CO)=CC[C@H]12 [0.33G, genipin], the “Change in Stiffness: Compression side” value [3] was 29%, the “Change in Stiffness: Tensionon side” value [3] was 17% and the “Loss of Hysteresis” value [3] was 35%.

In the case of COC(=O)C1=CO[C@@H](O)[C@@H]2C(CO)=CC[C@H]12 [genipin], the “Normalized peak force (peak force normalized by specimen thickness)” value [4] is reported as 42.7 N/mm, the “Total energy per area of tear” value [4] is reported as 40.2 mJ/mm^2 and the “Water content, Gr C2” value ([5]; Inner AF) is reported as 0.7394 g H2O/g Wet Weight. The “% increase by Genipin (flux versus control)” value ([5]; Inner AF) was 17.3%, the “Genipin Flux” value ([5]; Inner AF) was 0.1008 and the “Water content, Gr B2” value ([5]; Inner AF) was 0.7629 g H2O/g Wet Weight. The “Water content, Gr C2” value ([5]; NP) was 0.817 g H2O/g Wet Weight, the “% increase by Genipin (fluid flow into and out of the nucleus versus control)” value ([5]; NP) was 64% and the “Genipin Flux” value ([5]; NP) was 0.04983. The “Water content, Gr D2” value ([5]; NP) was 0.8524 g H2O/g Wet Weight, the “% increase by Genipin (fluid flow into and out of the nucleus versus control)” value ([5]; NP, listed as Genipin) was 63.7% and the “Water content, Gr B2” value ([5]; NP) was 0.8314 g H2O/g Wet Weight. The “Water content, Gr C2” value ([5]; Outer AF) was 0.6924 g H2O/g Wet Weight, the “% increase by Genipin (flux versus control)” value ([5]; Outer AF) was 5.7% and the “Genipin Flux” value ([5]; Outer AF) was 0.05294. The “Water content, Gr D2” value ([5]; Outer AF) was 0.711 g H2O/g Wet Weight, the “Water content, Gr B2” value ([5]; Outer AF) was 0.7268 g H2O/g Wet Weight and the “reduction in viscoelastic degradation” value ([1]; soaking calf disc tissue in 0.33% concentration of genipin) was “More than a three-fold reduction”. The “ultimate tensile strength and toughness” value [6] was “greater ultimate tensile strength and toughness”, the cytotoxicity [7] was “significantly less cytotoxicity” and the “persistence of hardness improvement under fatigue cycling” value [2] was “unable to sustain an improvement in the elastic mechanical properties (hardness) to 3000 test cycles”.

For COC(=O)C1=CO[C@@H](O)[C@@H]2C(CO)=CC[C@H]12 [0.50G, genipin], the “Change in Stiffness: Compression side” value [3] was −12% and −22% and the “Change in Stiffness: Tensionon side” value [3] was 8% and 0.43%.

With COC(=O)C1=CO[C@@H](O)[C@@H]2C(CO)=CC[C@H]12 [0.66G, genipin] the “Change in Stiffness: Compression side” value [3] was 8%, the “Change in Stiffness: Tensionon side” value [3] was 6% and the “Loss of Hysteresis” value [3] was 20%.

Reference: patent US8119599B2, “Direct application of non-toxic crosslinking reagents to resist progressive spinal degeneration and deformity” (Orthopeutics, L.P., priority 2001, dated 2012)
